These results are taken from patent publication US9328138B2 (priority 2011, dated 2016).

Assay [1] deals with T1, HCV genotype 1b (BK) NS3 modified enzyme with a R155K mutation (Hepatitis C virus genotype 1b, UniProt P26663, R1181K).
T1 construct: HCV genotype 1b (BK) NS3 modified enzyme
Put plainly: HCV NS3 protease time-resolved fluorescence (TRF) assay, genotype 1b R155K. Format: biochemical. Particulars: Ki 1b R155K. In outline: (§1)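 Inhibitor titrations are mixed with NS3/NS4A in pH 7.5 HEPES buffer containing 10 mM DTT and 15% glycerol for 10 min before substrate (25 nM final) is added. After 6 h at room temperature, delayed fluorescence is read and fitted to a four-parameter curve for IC50.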

Assay [2] addresses HCV NS3 protease genotype 3a (3A-1) (Hepatitis C virus genotype 3a, UniProt Q81258). Description: HCV NS3 protease time-resolved fluorescence (TRF) assay, genotype 3a. It counts as biochemical. The following applies: Ki 3a. In a few lines: as §1
[3] abbreviates: genotype 1b (BK) NS3 R155K, single value.
[4] abbreviates: first of two values printed in the cell (not explained).
Where [5] appears, read: second of two values printed in the cell (not explained).

Molecules are shown by their SMILES. Counter-ions that a name gives are not always drawn.

By Ki is commonly meant a measure of affinity in units of concentration, obtained from inhibition or displacement. A lower Ki goes with tighter binding. Regarding `C=C[C@@H]1C[C@]1(NC(=O)[C@@H]1C[C@@H]2CN1C(=O)[C@H](C1CCCC1)NC(=O)O[C@@H]1CCC[C@H]1CC/C=C/Cc1c(nc3ccccc3c1OCCCN1CCOCC1)O2)C(=O)NS(=O)(=O)C1CC1` [Example 87, (3aR,7S,10S,12R,21E,24aS)-7-cyclo pentyl-N-{(1R,2S)-1-[(cyclopropylsulfonyl)carbamoyl]-2-ethenylcyclopropyl}-19-[3-(morpholin-4-yl)propoxy]-5,8-dioxo-1,2,3,3a,5,6,7,8,11,12,20,23,24, 24a-tetradeca hydro-10H-9,12-methano cyclopenta[18,19][1,10,3,6] dioxadiazacyclononadecino [11,12-b]quinoline-10-carboxamide], the figures for the Ki in assay [1] (setting [3]) and in assay [2] were 0.24 nM and 3.2 nM, respectively.

Regarding `C=CC1C[C@]1(NC(=O)[C@@H]1C[C@@H]2CN1C(=O)[C@H](C1CCCC1)NC(=O)O[C@@H]1CCC[C@H]1CC/C=C/Cc1c(nc3ccccc3c1OCCCN1CCC1)O2)C(=O)NS(=O)(=O)C1(C)CC1` (stereo partly drawn) [Example 85, (3aR,7S,10S,12R,21E,24aS)-19-[3-(azetidin-1-yl)propoxy]-7-cyclopentyl-N-[(1R,2S)-2-ethenyl-1-{[(1-methylcyclopropyl)sulfonyl]carbamoyl}cyclopropyl]-5,8-dioxo-1,2,3,3a,5,6,7,8,11,12,20,23,24,24a-tetra deca hydro-10H-9,12-methanocyclopenta [18,19][1,10,3,6]dioxa-diazacyclononadecino[11,12-b] quinoline-10-carboxamide], the Ki came to 0.11 nM in assay [1] (setting [3]) and 0.56 nM in assay [2].

With `C=C[C@@H]1C[C@]1(NC(=O)[C@@H]1C[C@@H]2CN1C(=O)[C@H](C1CCCCC1)NC(=O)O[C@@H]1C[C@H]1CCCCCc1c(nc3ccccc3c1OCCCNC1CCC1)O2)C(=O)NS(=O)(=O)C1(C)CC1` [Example 242, N-(3-{[(1aR,5S,8S,10R,22aR)-5-cyclohexyl-8-{[(1R,2S)-2-ethenyl-1-{[(1-methylcyclopropyl)sulfonyl]carbamoyl}cyclopropyl]carbamoyl}-3,6-dioxo-1,1a,3,4,5,6,9,10,18,19,20,21,22,22a-tetradecahydro-8H-7,10-methanocyclopropa[18,19][1,10,3,6]dioxadiazacyclononadecino[11,12-b]quinolin-17-yl]oxy}propyl)cyclobutanaminium formate], the Ki came to 0.013 nM in assay [1] (setting [4]), 0.072 nM in assay [1] (setting [5]) and 0.935 nM in assay [2].

For the molecule `C=C[C@@H]1C[C@]1(NC(=O)[C@@H]1C[C@@H]2CN1C(=O)[C@H](C(C)(C)C)NC(=O)O[C@@H]1CCC[C@H]1CC/C=C/Cc1c(nc3ccccc3c1OCCCN1CCCC1=O)O2)C(=O)NS(=O)(=O)C1(C)CC1` [Example 89, (3aR,7S,10S,12R,21E,24aS)-7-tert-butyl-N-[(1R,2S)-2-ethenyl-1-{[(1-methycyclopropyl)sulfonyl]carbamoyl}cyclopropyl]-5,8-dioxo-19-[3-(2-oxopyrrolidin-1-yl)propoxy]-1,2,3,3a,5,6,7,8,11,12,20,23,24,24a-tetradecahydro-10H-9,12-methano-cyclopenta[18,19][1,10,3,6]dioxa diazacyclononadecino[11,12-b] quinoline-10-carboxamide], the Ki in assay [1] (setting [3]) was 0.07 nM; in assay [2], 0.32 nM.

For `C=C[C@@H]1CC1(NC(=O)[C@@H]1C[C@@H]2CN1C(=O)[C@H](C(C)(C)C)NC(=O)O[C@@H]1C[C@H]1CCCCCc1c(nc3ccccc3c1OC1C3COCC1CN(CCOC)C3)O2)C(=O)NS(=O)(=O)C1(C)CC1` (stereo partly drawn) [Example 257, 9-{[(1aR,5S,8S,10R,22aR)-5-tert-butyl-8-{[(1R,2S)-2-ethenyl-1-{[1-methylcyclopropyl)sulfonyl]carbamoyl}cyclopropyl]carbamoyl}-3,6-dioxo-1,1a,3,4,5,6,9,10,18,19,20,21,22,22a-tetradecahydro-8H-7,10-methanocyclopropa[18,19][1,10,3,6]dioxadiazacyclononadecino[11,12-b]quinolin-17-yl]oxy}-7-(2-methoxyethyl)-3-oxa-7-azoniabicyclo[3.3.1]nonane formate], the inhibition constant Ki in assay [1] (setting [4]) was determined as 0.032 nM; in assay [1] (setting [5]), 0.23 nM; in assay [2], 3.9 nM.

In the case of `C=C[C@@H]1C[C@]1(NC(=O)[C@@H]1C[C@@H]2CN1C(=O)[C@H](C1CCCC1)NC(=O)O[C@@H]1CCC[C@H]1CCCCCc1c(nc3ccccc3c1OCCN1CC3CCC1C3)O2)C(=O)NS(=O)(=O)C1CC1` [Example 60, (3aR,7S,10S,12R,24aR)-19-[2-(2-azabicycle [2.2.1]hept-2-yl)ethoxy]-7-cyclo pentyl-N-{(1R,2S)-1-[(cyclopropylsulfonyl)carbamoyl]-2-ethenylcyclopropyl}-5,8-dioxo-1,2,3,3a,5,6,7,8,11,12,20,21,22,23,24,24a-hexadecahydro-10H-9,12-methanocyclopenta [18,19][1,10,3,6]dioxadiazacyclononadecino [11,12-b]quinoline-10-carboxamide], the Ki in assay [1] (setting [3]) came out at 0.61 nM; in assay [2], 12 nM.

Take `C=C[C@@H]1C[C@]1(NC(=O)[C@@H]1C[C@@H]2CN1C(=O)[C@H](C1CCCC1)NC(=O)O[C@@H]1CCC[C@H]1CC/C=C/Cc1c(nc3ccccc3c1OC(=O)CC(C)C)O2)C(=O)NS(=O)(=O)C1CC1` [Example 41, (3aR,7S,10S,12R,21E,24aS)-7-cyclopentyl-10-({(1R,2S)-1-[(cyclopropylsulfonyl)carbamoyl]-2-ethenylcyclopropyl}carbamoyl)-5,8-dioxo-1,2,3,3a,5,6,7,8,11,12,20,23,24,24a-tetradecahydro-10H-9,12-methanocyclopenta[18,19][1,10,3,6]dioxadiazacyclononadecino[11,12-b]quinolin-19-yl 3-methylbutanoate]: the Ki worked out at 6.6 nM in assay [1] (setting [3]) and 73 nM in assay [2].

As for `C=C[C@@H]1C[C@]1(NC(=O)[C@@H]1C[C@@H]2CN1C(=O)[C@H](C1CCCCC1)NC(=O)O[C@@H]1C[C@H]1CCCCCc1c(nc3ccccc3c1OC1CCN(CCOC)CC1)O2)C(=O)NS(=O)(=O)C1(C)CC1` [Example 237, 4-{[(1aR,5S,8S,10R,22aR)-5-cyclohexyl-8-{[(1R,2S)-2-ethenyl-1-{[(1-methylcyclopropyl)sulfonyl]carbamoyl}cyclopropyl]carbamoyl}-3,6-dioxo-1,1a,3,4,5,6,9,10,18,19,20,21,22,22a-tetradecahydro-8H-7,10-methanocyclopropa[18,19][1,10,3,6]dioxadiazacyclononadecino[11,12-b]quinolin-17-yl]oxy}-1-(2-methoxyethyl)piperidinium formate], the Ki in assay [1] (setting [4]) came to 0.013 nM; in assay [1] (setting [5]), 0.098 nM; in assay [2], 0.8 nM.

Consider `C=C[C@@H]1C[C@]1(NC(=O)[C@@H]1C[C@@H]2CN1C(=O)[C@H](C1CCCC1)NC(=O)O[C@@H]1CCC[C@H]1CC/C=C/Cc1c(nc3ccccc3c1OCc1ccccc1)O2)C(=O)NS(=O)(=O)C1(C)CC1` [Example 15, (3aR,7S,10S,12R,21E,24aS)-19-(benzyloxy)-7-cyclopentyl-N-[(1H,2S)-2-ethenyl-1-{[(1-methylcyclopropyl)sulfonyl]carbamoyl}cyclopropyl]-5,8-dioxo-1,2,3,3a,5,6,7,8,11,12,20,23,24,24a-tetradecahydro-10H-9,12-methanocyclopenta[18,19] [1,10,3,6]dioxadiazacyclononadecino[11,12-b] quinoline-10-carboxamide], for which the Ki in assay [1] (setting [3]) was 0.81 nM; in assay [2], 36 nM.

As for `C=C[C@@H]1C[C@]1(NC(=O)[C@@H]1C[C@@H]2CN1C(=O)[C@H](C(C)(C)C)NC(=O)O[C@@H]1C[C@H]1CCCCCc1c(nc3ccccc3c1OC[C@H]1CNCCO1)O2)C(=O)NS(=O)(=O)C1(C)CC1` [Example 221, (1aR,5S,8S,10R,22aR)-5-tert-butyl-N-[(1R,2S)-2-ethenyl-1-{[(1-methylcyclopropyl)sulfonyl]carbamoyl}cyclopropyl]-17-[(2R)-morpholin-2-ylmethoxy]-3,6-dioxo-1,1a,3,4,5,6,9,10,18,19,20,21,22,22a-tetradecahydro-8H-7,10-methanocyclopropa[18,19][1,10,3,6]dioxadiazacyclononadecino[11,12-b]quinoline-8-carboxamide], the Ki was determined as 0.05 nM in assay [1] (setting [3]) and 1.4 nM in assay [2].

`CN1CCN(CCCOc2c3c(nc4ccccc24)O[C@@H]2C[C@H]4C(=O)N[C@]5(C(=O)NS(=O)(=O)C6(C)CC6)C[C@H]5/C=C\CCCCC[C@H](NC(=O)O[C@@H]5C[C@H]5CCC/C=C/3)C(=O)N4C2)CC1` [Example 304, (1aR,5S,11Z,12aS,13aR,16S,19R,27E, 31aR)-N-[(1-methylcyclopropyl)sulfonyl]-26-[3-(4-methylpiperazin-1-yl)propoxy]-3,15,33-trioxo-1,1a,3,4,5,6,7,8,9,10,12a,13,15,16,18, 19,29,30,31,31a-icosahydro-5,17:16,19-dimethanodicyclopropa[12,13:28,29] [1,20,3,14,17] dioxatriazacyclononacosino[21,22-b]quinoline-13a(14H)-carboxamide]: the Ki in assay [1] (setting [3]) amounted to 0.078 nM; in assay [2], 1.2 nM.

`C=C[C@@H]1C[C@]1(NC(=O)[C@@H]1C[C@@H]2CN1C(=O)[C@H](C(C)(C)C)NC(=O)O[C@H]1C[C@@H]1CCCCCc1c(nc3ccncc3c1OC1CCN(C)CC1)O2)C(=O)NS(=O)(=O)C1(C)CC1` [Example 295, (1aS,5S,8S,10R,22aS)-5-tert-butyl-N-{(1R,2S)-2-ethenyl-1-[(1-methylcyclopropanesulfonamido)carbonyl]cyclopropyl}-17-[(1-methylpiperidin-4-yl)oxy]-3,6-dioxo-1,1a,3,4,5,6,9,10,18,19,20,21,22,22a-tetradecahydro-8H-7,10-methanocyclopropa[18,19][1,10,3,6]dioxadiazacyclononadecino[11,12-b][1,6]naphthyridine-8-carboxamide]: the results for the Ki in assay [1] (setting [3]) and in assay [2] were 0.082 nM and 1.07 nM, respectively.
